Here are results for twelve molecules from US20070281028A1, “Drug Delivery of a Cox Inhibitor from Embolic Agents” (Biocompatibles Uk Limited, priority 2004, published 2007).

Molecules are shown by their SMILES. Several values for one entry are separate records, joined by “and”; a condition that tells them apart may be missing. Identical values can stand only once.

Data set [1] in a line: Loading (uptake) of drug into microspheres, from depletion of loading solution (UV/HPLC). Type of data set: physicochemical. As to conditions: for dose loaded per ml of hydrated microspheres: 5 ml of 100 mg/ml drug in ethanol added to 0.5 ml microspheres; for ketoprofen loaded/ml spheres, maximum loading: at 24 hours; for ketorolac loaded in microspheres: low AMPS 500-710 μm, loaded from water. The protocol:
A solution of 100 mg/ml flurbiprofen (Sigma) in ethanol was prepared. […] Low AMPS and high AMPS microspheres of size 500-710 μm were used and drug uptake monitored by UV. The samples were agitated on a roller mixer. Aliquots of supernatant were taken at 10, 20, 30, 60 mins and then at 2 hr, out to 24 hr. Uptake was calculated from the flurbiprofen remaining in solution. […] Microspheres of the present invention of each size loaded with 200 mg/ml flurbiprofen were placed in 250 ml water at 37° C.
The samples were agitated on a roller mnixer.
5 ml of the solution was added to 0.5 ml of low AMPS microspheres, of size 500-710 μm, and uptake monitored by HPLC. The samples were agitated on a roller mixer. Aliquots of supernatant were taken at 5, 10, 20 40 and 60 mins and then 24 hr.
The samples were agitated on a roller mixer. Samples of the supernatant were taken at 10, 20, 40, 60 mins and 24 hrs. […] Elution experiments were carried out on these microspheres (table 1). Microspheres were washed to determine quick burst in various media as in table 1. Then samples were placed in 10 ml solvent and absorbance read after 10 mins, a further 20 ml added and absorbance read after 10 mins, this was repeated up to 90 mls and elution was monitored up to 24 hrs (table 1).
Once prepared, the absorbances of the solutions were read by UV at 263 nm and dilutions were made to produce a standard curve. […] The vials were placed on a roller mixer at room temperature for the entire experiment. At a predetermined time points (0, 10, 20, 30 and 60 min) 100 μl was removed, diluted as necessary (1/200) and read at 263 nm. From the readings and the standard curve, the concentration of the solution at each time point was calculated. The amount of drug loaded onto the beads was measured by the depletion of the drug in solution when extracted with the beads. From the data the mg drug loaded per 1 ml of hydrated beads were calculated and the graph plotted.
Five samples of 1 ml of hydrated beads Low AMPS 700 to 1100 μm were used. For each sample, 1 ml of beads in phosphate buffered saline (PBS), measured with a 10 ml—glass cylinder, was transferred to a glass container and all the PBS was carefully removed with a glass Pasteur pipette. […] Once prepared, the absorbances of the solution and dilutions were read by UV at 263 nm to produce a standard curve. […] The vials were placed on the roller mixer at room temperature for the entire experiment. At predetermined time points (0, 20, 40, 60 and 120 min) 100 μl was removed, diluted as necessary (1/200) and read at 263 nm. From the readings and the standard curve, the concentration of the solution at each time point was calculated. The amount of drug loaded onto the beads was measured by the depletion of the drug in solution. From the data the mg drug loaded per 1 ml of beads were calculated and the graph plotted (FIG. 12).
Six samples of 1 ml of beads (700-1100 μm) were used. For each sample, 1 ml of beads in phosphate buffered saline (PBS), measured with a 10 ml glass cylinder, was transferred to a glass container and all the PBS was carefully removed with a glass Pasteur pipette. […] Once prepared, the absorbances of the solution and dilutions of the aqueous and of the alcoholic solutions were read by UV at 263 nm to produce standard curves. […] The vial was placed on the roller mixer at room temperature for the entire experiment. Once loaded, the remaining solution was removed, measured in a graduated measurement cylinder and read at 263 nm.

Data set [2] is described as follows: Release (elution) of drug from loaded microspheres in vitro. Type of data set: physicochemical. The settings on record: for salicylic acid loaded that was released: 100 ml water, majority within the first 15 minutes.
Another data set deals with HIF-1 alpha. The settings on record: COX-2 independent; cited from earlier work.
A further data set has as its system HIF-2 alpha. The settings on record: COX-2 independent; cited from earlier work.
A further data set deals with COX-2/COX-1. The settings on record: 0 = equal potency; above 0 more selective to COX-1, below 0 more selective to COX-2; cited from earlier work.
Data set [3] can be described thus: Plasma levels of ibuprofen after embolisation, intra-arterial or intravenous administration. As to conditions: sheep, after intra-arterial administration (IA) of 50 mg solution in both left and right artery. Type of data set: in vivo.
The subject of data set [4] is colorectal cancer cell line. The settings on record: cited from earlier work.
[5] abbreviates: high AMPS microspheres 500-710 μm.
[6] abbreviates: in less than 30 minutes, low and high AMPS microspheres, 100 mg/ml in ethanol.
Where [7] appears, read: low AMPS microspheres 500-710 μm.
The mark [8] stands for this setting: 10 ml water, 37° C., released in the first 5 minutes.

One may read the Cmax as the peak of the concentration-time curve.

Consider `O=C(O)Cc1ccccc1Nc1c(Cl)cccc1Cl` [Diclofenac], for which the “dose loaded per ml of hydrated microspheres” value in data set [1] (setting [5]) is listed as 30 mg per ml of hydrated microsph; in data set [1] (setting [7]), 26 mg per ml of hydrated microsph. Moreover, the “drug solution located in the microspheres” value (shortened to “drug solution located”) in data set [1] (setting [6]) is 99%. Also, in data set [2] (further in 48 hrs, microspheres loaded with 26 and 30 mg/ml, 250 ml water at 37° C.), the further release turned out to be 35%. In data set [2] (in first 5 minutes, microspheres loaded with 26 and 30 mg/ml, 250 ml water at 37° C.), the release is listed as 18-26%. For the same molecule, the “HIF-1 alpha gene expression” value in the data set on HIF-1 alpha is on record as “inhibited”. For the same molecule, the “HIF-2 alpha gene expression” value in the data set on HIF-2 alpha was “inhibited”.
Regarding `CC(C(=O)O)c1cccc(Oc2ccccc2)c1` (stereo not shown) [Fenoprofen], in the data set on COX-2/COX-1, the “Log [IC80 ratio WHMA COX-2/COX-1)]” value is listed as 0.
Turning to `CC(C(=O)O)c1ccc(-c2ccccc2)c(F)c1` (stereo not shown) [Flurbiprofen], the “dose loaded per ml of hydrated microspheres” value in data set [1] (setting [5]) is reported as 197 mg per ml of hydrated microsph; in data set [1] (setting [7]), 195 mg per ml of hydrated microsph. In addition, the “drug solution located” value in data set [1] (setting [6]) turned out to be 99%. The molecule also returned a further release in data set [2] (further in 2 days, microspheres loaded with 200 mg/ml, 250 ml water at 37° C.) of 5%. Moreover, the release in data set [2] (in first 10 minutes, microspheres loaded with 200 mg/ml, 250 ml water at 37° C.) is listed as 30%.
With `CC(C)Cc1ccc(C(C)C(=O)O)cc1` (stereo not shown) [Ibuprofen], the “Loading mg/ml Bead” value in data set [1] (2 ml loading solution (250 mg/ml in ethanol) to 1 ml low AMPS microspheres, listed as Ibuprofen Free Acid) is 177.3 mg/ml Bead and 185.24 mg/ml Bead and 142.82 mg/ml Bead and 187.08 mg/ml Bead and 207.7 mg/ml Bead and 235.53 mg/ml Bead; in data set [1] (3 ml loading solution (250 mg/ml in ethanol) to 1 ml low AMPS microspheres), 323.7 mg/ml Bead. Also, in data set [1] (loaded from ethanol, low AMPS beads 700 to 1100 μm, contraction then expels drug solution), the “time at which optimum loading is obtained” value is reported as “around 20 mins”. For the same molecule, in data set [1] (low AMPS microspheres, 250 mg/ml in ethanol, range over series of experiments), the “doses loaded per ml of hydrated microspheres” value is listed as 142-335 mg per ml of hydrated microspheres. Besides, in data set [2] (low AMPS microspheres, elution up to 90 mls, up to 24 hrs, over experiments of table 1), the “Elution rate (range)” value is 20%-43%. The “Elution rate, average in most experiments” value in data set [2] (low AMPS microspheres, up to 24 hrs) is 25%. The “Eluted Drug” value was 53 mg in data set [2] (quick burst/wash out solvent 50% ethanol, elution solvent 50% ethanol, up to 24 hrs); 60 mg in data set [2] (quick burst/wash out solvent 100% ethanol, elution solvent 0.9% Saline (pH 12), up to 24 hrs); 47 mg in data set [2] (quick burst/wash out solvent 100% ethanol, elution solvent 50% ethanol, up to 24 hrs); 47 mg and 83 mg and 57 mg in data set [2] (wash out and elution solvent 0.9% Saline (pH 12), 2 ml loading solution, up to 24 hrs, listed as Ibuprofen Free Acid); 77 mg in data set [2] (wash out and elution solvent 0.9% Saline (pH 12), 3 ml loading solution, up to 24 hrs). In addition, in data set [2] (wash of loaded low AMPS microspheres in various media), the quick burst result was “approximately 15%”. This molecule had a Cmax in data set [3] of 32000 ng/mL. In the data set with HIF-2 alpha, the “HIF-2 alpha gene expression” value is given as “inhibited”.
Regarding `CC(C(=O)O)c1cccc(C(=O)c2ccccc2)c1` (stereo not shown) [Ketoprofen], the “ketoprofen loaded/ml spheres, maximum loading” value in data set [1] (high AMPS microspheres 500-710 μm, 30 mg/ml in ethanol) was “approximately 10 mg ketoprofen loaded/ml spheres”; in data set [1] (low AMPS microspheres 500-710 μm, 30 mg/ml in ethanol), “approximately 12 mg ketoprofen loaded/ml spheres”. Also, in data set [1] (low and high AMPS microspheres, 30 mg/ml in ethanol, monitored over 72 hours), the “time of maximum loading” value stood at 24 h.
In the case of `O=C(c1ccccc1)c1ccc2n1CCC2C(=O)O` (stereo not shown) [Ketorolac], the “ketorolac loaded in microspheres” value worked out at 27 mg/mL in data set [1] (high loaded microspheres) and 13 mg/mL in data set [1] (low loaded microspheres). In data set [1] (in less than 10 minutes, low AMPS microspheres 500-710 μm, 50 mg/ml and 10 mg/ml in water), the “drug solution located” value is recorded as 99%. Moreover, the released in data set [2] (high AMPS loaded microspheres (so in the source), first 5 minutes, 250 ml water at 37° C.) stood at 43%; in data set [2] (high AMPS loaded microspheres (so in the source), in 1 hrs, 250 ml water at 37° C.), 90%; in data set [2] (low loaded microspheres, first 5 minutes, 250 ml water at 37° C.) it was 75%; in data set [2] (low loaded microspheres, in 1 hr, 250 ml water at 37° C.), 90%. The further slow release in data set [2] (high AMPS loaded microspheres (so in the source), further in the next 24 hrs) came out at 4%. Further, the further release in data set [2] (low loaded microspheres, further in next 24 hrs) was determined as 5%. In addition, in the data set on HIF-2 alpha, the “HIF-2 alpha gene expression” value is given as “inhibited”.
On to `CS(=O)(=O)Nc1ccc([N+](=O)[O-])cc1OC1CCCCC1` [NS398], for which the “HIF-2 alpha gene expression” value with HIF-2 alpha is given as “inhibition”. The “expression of pro-angiogenic factors, including VEGF” value in data set [4] was “diminished”.
In the case of `COc1ccc2cc([C@H](C)C(=O)O)ccc2c1` [Naproxen], in data set [1] (low or high AMPS microspheres 500-710 μm, 30 mg/ml in ethanol, over 168 hours), the “naproxen taken up per ml of spheres” value is given as 35-40 mg naproxen/ml of spheres. Also, in data set [2] (setting [8]), the “drug released per ml of microspheres” value is listed as 6-9 mg/ml of microspheres and the “loaded drug released from the microspheres” value is 17-25%. Moreover, the “further release after transfer to fresh water” value in data set [2] (transfer to 10 ml fresh water after 17 hours, measured 7 hours more) was “did not bring about any further release”.
As to `O=C(O)c1cccnc1Nc1cccc(C(F)(F)F)c1` [Niflumic Acid], the “Log [IC80 ratio WHMA COX-2/COX-1)]” value in the data set with COX-2/COX-1 is on record as 0.
Consider `Cc1cc(CC(=O)O)n(C)c1C(=O)c1ccc(Cl)cc1` [Zomepirac], for which the “Log [IC80 ratio WHMA COX-2/COX-1)]” value with COX-2/COX-1 is listed as 0.
Take `CC(C)Cc1ccc(C(C)C(=O)[O-])cc1.[Na+]` (stereo not shown) [ibuprofen sodium salt]: the “time at which maximum loading is reached” value in data set [1] (loaded from ethanol 250 mg/ml, low AMPS beads 700-1100 μm, loading decreases afterwards) is listed as “about 20 minutes”. Also, the “loading levels, drug per ml of hydrated beads” value in data set [1] (range over six microsphere products, 2 ml of 100 mg/ml in water to 1 ml microspheres, 100 minute period) is listed as 67 to 142 mg of drug per ml of hydrated beads.
Regarding `O=C(O)c1ccccc1O` [salicylic acid], in data set [1] (low or high AMPS 500-710 μm, 5 mg/ml in ethanol, after 3-4 hours), the “maximum salicylic acid taken up per ml of microspheres” value was 3-4 mg salicylic acid/ml of microspheres. In addition, the “salicylic acid taken up per ml of microspheres” value in data set [1] (low or high AMPS 500-710 μm, 5 mg/ml in ethanol, after 24 hours) was 2-3 mg/ml of microspheres. Also, the “salicylic acid loaded that was released” value is listed as “approximately 30%” in data set [2] (high AMPS microspheres, 37° C.) and “approximately 25%” in data set [2] (low AMPS microspheres, 37° C.). Also, the “further release after transferral into fresh water” value in data set [2] (transfer to 10 ml fresh water after 60 hours, measured 60 hours more) is “did not bring about any further release”.
